# Where two headings read alike, the source gives them in different places. Where no end group is shown, it is not given here.
# Assays:
# [1] = tested on: all the tested bacterial species including Gram-positive and Gram-negative bacteria
# Experimental: The minimum inhibitory concentrations (MICs) of the AMPs were measured in 96-well microtiter plates according the Clinical and Laboratory Standards Institute (CLSI, formerly National Committee for Clinical Laboratory Standards [NCCLS]). Briefly, liquid Mueller-Hinton-II medium containing increasing concentrations of AMPs is inoculated with a defined number of cells (approx. 10^5 CFUs/ml) in 96-well microtiter plates (polypropylene), whereas each plate also includes a positive growth control and a negative control (sterile control). […] After incubation, the MIC is determined by the lowest concentration showing no visible growth. All plates were incubated for 16–20 hours. The MIC of the reference antibiotics was determined by the use of Sensititre panels (Trek Diagnostic Systems Ltd, East Grinstead, UK).
# To identify Cap18 variant peptides with changed species specificity, the antimicrobial screening data of Y. ruckeri, A. salmonicida, S. Typhimurium and L. lactis was compared.
# In addition, three Cap18 derivatives harboring either a I13F, I13M or G26T substitution were ordered as positive controls. […] The antimicrobial activity of the highly pure peptides was determined by measuring the MIC value of each derivative against the four test strains Y. ruckeri, A. salmonicida, S.Typhimurium and L. lactis (Table 6). […] In addition to the additional screening strains, a wider range of relevant pathogens including Gram-positive and Gram-negative bacteria was analyzed for targeted antimicrobial activity.
# [2] = tested on: Escherichia coli ATCC25922; assay type: cell-based
# Experimental: (§1) All strains were grown in Mueller-Hinton-II medium, except L. monocytogenes which was grown in BHI medium and L. lactis which was grown in MRS medium. Incubation took place aerobically at 37°C, except for Y. ruckeri and A. salmonicida, which were grown aerobically at RT (20 °C), and L. lactis grown aerobically at 30°C. All plates were incubated for 16–21 hours.
# (§2) The minimum inhibitory concentrations (MICs) of the AMPs were measured in 96-well microtiter plates according the Clinical and Laboratory Standards Institute (CLSI, formerly National Committee for Clinical Laboratory Standards [NCCLS]). Briefly, liquid Mueller-Hinton-II medium containing increasing concentrations of AMPs is inoculated with a defined number of cells (approx. 10^5 CFUs/ml) in 96-well microtiter plates (polypropylene), whereas each plate also includes a positive growth control and a negative control (sterile control). The range of peptide concentrations analyzed was 0.125–64 μg/ml for the high purity peptides and 0.06–32 μg/ml for peptides of the variant library. After incubation, the MIC is determined by the lowest concentration showing no visible growth. All plates were incubated for 16–20 hours. The MIC of the reference antibiotics was determined by the use of Sensititre panels (Trek Diagnostic Systems Ltd, East Grinstead, UK).
# [3] = tested on: Pseudomonas aeruginosa ATCC27853; assay type: cell-based
# Experimental: as §1, §2
# [4] = tested on: Listeria monocytogenes N22-2; assay type: cell-based
# Experimental: as §1, §2
# [5] = tested on: Lactococcus lactis IL1403; assay type: cell-based
# Experimental: as §1, §2
# [6] = tested on: Enterococcus faecalis ATCC29212; assay type: cell-based
# Experimental: as §1, §2
# [7] = tested on: Salmonella enterica serovar Typhimurium LT2; assay: microbe, parasite or virus in culture; assay type: cell-based; settings: LT2
# Experimental: as §1, §2
# [8] = tested on: Aeromonas salmonicida ATCC33658; assay: microbe, parasite or virus in culture; assay type: cell-based; settings: ATCC33658
# Experimental: as §1, §2
# [9] = tested on: Yersinia ruckeri 392/2003; assay: microbe, parasite or virus in culture; assay type: cell-based
# Experimental: as §1, §2
# horse erythrocytes = tested on: horse erythrocytes; design: method as in PMID 26656394; settings: cited from earlier work
# [10] = previous study; cited from earlier work
# Source text: It must be expected that AMPs during evolution have evolved towards a high general activity against multiple microorganisms. In this study, we address the issues of species specificity, hemolytic activity and antimicrobial activity of Cap18, a α-helical peptide of the cathelicidin family.
MIC against all the tested bacterial species [1] [µg/mL],MIC E. coli ATCC25922 [2] [µg/mL],MIC P. aeruginosa ATCC27853 [3] [µg/mL],MIC L. monocytogenes N22-2 [4] [µg/mL],MIC L. lactis IL1403 [5] [µg/mL],MIC E. faecalis ATCC29212 [6] [µg/mL],MIC S. Typhimurium LT2 [7] [µg/mL],MIC A. salmonicida ATCC33658 [8] [µg/mL],MIC Y. ruckeri 392/2003 [9] [µg/mL],Sequence,Hemolytic activity in vitro (horse erythrocytes),MIC L. lactis [5] [µg/mL],MIC S. Typhimurium [7] [µg/mL],MIC A. salmonicida [8] [µg/mL],MIC Y. ruckeri [9] [µg/mL],"MIC Y. ruckeri 392/2003 ([9]; high purity peptides, Mueller-Hinton-II, RT (20 °C), 0.125–64 μg/ml, triplicates) [µg/mL]",Thermostability [10]
≥ 32,≥64,≥64,32 to 64,≥64,≥64,≥64,≥64,≥64,GLRKRLRKFRNKDKEKLKKIGQKIQGLLPKLAPRTDY [Peptide 3],–,–,–,–,–,–,–
≥ 32,≥64,≥64,≥64,≥64,≥64,≥64,≥64,≥64,GLRKRLRKFRNKIKEKLKKIGQKDQGLLPKLAPRTDY [Peptide 26],–,–,–,–,–,–,–

Sequence,MIC against all the tested bacterial species [1] [µg/mL],MIC E. coli ATCC25922 [2] [µg/mL],MIC P. aeruginosa ATCC27853 [3] [µg/mL],MIC L. monocytogenes N22-2 [4] [µg/mL],MIC L. lactis IL1403 [5] [µg/mL],MIC E. faecalis ATCC29212 [6] [µg/mL],MIC S. Typhimurium LT2 [7] [µg/mL],MIC A. salmonicida ATCC33658 [8] [µg/mL],MIC Y. ruckeri 392/2003 [9] [µg/mL],Hemolytic activity in vitro (horse erythrocytes),MIC L. lactis [5] [µg/mL],MIC S. Typhimurium [7] [µg/mL],MIC A. salmonicida [8] [µg/mL],MIC Y. ruckeri [9] [µg/mL],"MIC Y. ruckeri 392/2003 ([9]; high purity peptides, Mueller-Hinton-II, RT (20 °C), 0.125–64 μg/ml, triplicates) [µg/mL]",Thermostability [10]
GLRKRLRKFRNKIKEKLKKIGQKIQGLLPKLAPRTDY [Cap18],–,4 to 8,4 to 8,4,1 to 2,8,4 to 8,4,–,no hemolytic activity,2 to 4,2 to 4,2,2,2 to 4,highly thermostable

# Reference: publication PMC5978884, “Dissection of the antimicrobial and hemolytic activity of Cap18: Generation of Cap18 derivatives with enhanced specificity” (PLoS ONE, 2018)
